Reference: patent EP4599826A1, “LEUCINE FOR USE IN THE TREATMENT OF CANCER” (priority 2024, dated 2025)

How the values were obtained:
[1] = system: CT26 CRC cell transplants; assay: syngeneic subcutaneous CT26 colorectal cancer mouse model: tumor growth and survival; assay type: in vivo, female BALB/c mice
Protocol: (§1) As for experiments employing the use of chemotherapy, carboplatin (Sindan, 10mg/ml), oxaliplatin (Mylan, 5mg/ml in infusion solution) and paclitaxel (Accord, 6mg/ml in 527mg/ml polyoxyethylated castor oil and 391 mg/ml ethanol) were provided by Istituto Nazionale dei Tumori, Milano.
(§2) The impact of oral Leucine supplementation, as given at a daily dose of 500 mg/Kg Leucine by oral gavage, was investigated on in vivo tumor growth and mouse survival in orthotopic (4T1 and E0771 TNBC cells injected in the mammary fat pad of female BALB/c mice and female C57BL6/J mice, respectively) or subcutaneous (CT26: murine colorectal carcinoma - CRC, or LLC: murine […] lung carcinoma cells, injected in the subcutaneous tissue of female BALB/c mice and female C57BL6/J mice, respectively) syngeneic tumor models.

E0771 cell transplants = assay: syngeneic orthotopic E0771 TNBC mouse model: tumor growth and survival; assay type: in vivo, female C57BL6/J mice
Protocol: as §1, §2

4T1-luc cell transplants = assay: syngeneic orthotopic 4T1 TNBC mouse model: tumor growth and survival; assay type: in vivo, female BALB/c mice
Protocol: as §1, §2

[2] = system: syngeneic mouse tumor models; conditions: Leucine + anti-PD-L1 immunotherapy, tumor model not stated
[3] = system: LLC lung cell transplants; assay: syngeneic subcutaneous LLC lung cancer mouse model: tumor growth and survival; assay type: in vivo, female C57BL6/J mice
Protocol: as §1, §2

[4] = oxaliplatin alone, 5 mg/kg once a week i.p.
[5] = paclitaxel alone, 30 mg/kg once a week i.p.
[6] = Leucine 500 mg/kg daily + cyclic fasting + carboplatin 50 mg/kg weekly + anti-PD-L1 MoAb, compared to the fasting-Leucine doublet
[7] = Leucine 500 mg/kg daily oral gavage + anti-PD-L1 MoAb 100 ug per mouse i.p. every other day, 4 cycles
[8] = Leucine 500 mg/kg daily oral gavage + carboplatin 50 mg/kg once a week i.p., effect less evident, yet still statistically significant
[9] = Leucine 500 mg/kg daily oral gavage + cyclic fasting (48-hour water-only fasting, repeated every 7 days)
[10] = Leucine 500 mg/kg once a day by oral gavage, alone, standard diet
[11] = Leucine 500 mg/kg daily oral gavage + paclitaxel 30 mg/kg once a week i.p., most relevant effects in this model
[12] = Leu + fasting + anti-PD-L1, compared to anti-PDL1 MoAb + fasting
[13] = Leucine 500 mg/kg daily oral gavage + oxaliplatin 5 mg/kg once a week i.p., effect less evident, yet still statistically significant
[14] = carboplatin alone, 50 mg/kg once a week i.p.

In the case of `O=C1[O][Pt]2([NH][C@@H]3CCCC[C@H]3[NH]2)[O]C1=O` [oxaliplatin, reference compound], the animal survival [1, 4] is reported as “statistically significant prolongation of animal survival” and the “in vivo tumor growth” value [1, 4] is reported as “slowed down in vivo tumor growth”.
`CC(=O)O[C@H]1C(=O)[C@@]2(C)[C@H]([C@H](OC(=O)c3ccccc3)[C@]3(O)C[C@H](OC(=O)[C@H](O)[C@@H](NC(=O)c4ccccc4)c4ccccc4)C(C)=C1C3(C)C)[C@]1(OC(C)=O)CO[C@@H]1C[C@@H]2O` [paclitaxel, reference compound] was tested, and the animal survival (E0771 cell transplants; [5]) was “statistically significant prolongation of animal survival” and the “in vivo tumor growth” value (E0771 cell transplants; [5]) was “slowed down in vivo tumor growth”.
`CC(C)C[C@H](N)C(=O)O` [Leucine] was tested, and the animal survival (4T1-luc cell transplants; [6]) was “meaningful prolongation of animal survival”, the animal survival (4T1-luc cell transplants; [7]) was “prolonged animal survival” and the “in vivo tumor growth” value (4T1-luc cell transplants; [7]) was “cooperatively slowed down in vivo tumor growth”. The animal survival (4T1-luc cell transplants; [8]) was “prolonging animal survival”, the “in vivo tumor growth” value (4T1-luc cell transplants; [8]) was “cooperated with chemotherapy in slowing down in vivo tumor growth” and the animal survival (4T1-luc cell transplants; [9]) was “significant prolongation of animal survival”. The “in vivo tumor growth” value (4T1-luc cell transplants; [9]) was “cooperative reduction of in vivo tumor growth”, the animal survival (4T1-luc cell transplants; [10]) was “prolonged animal survival” and the primary tumor growth (4T1-luc cell transplants; [10]) was “slowed down primary tumor growth”. For the same compound, the primary tumor mass ([2]; observed in some animals) was “completed disappearance of the primary tumor mass”, the “survival of some mice” value ([2]; some mice) was “long-term survival” and the animal survival (E0771 cell transplants; Leucine 500 mg/kg daily + cyclic fasting + paclitaxel 30 mg/kg weekly + anti-PD-L1 MoAb, compared to the fasting-Leucine doublet) was “meaningful prolongation of animal survival”. The animal survival (E0771 cell transplants; [7]) was “prolonged animal survival”, the “in vivo tumor growth” value (E0771 cell transplants; [7]) was “cooperatively slowed down in vivo tumor growth” and the animal survival (E0771 cell transplants; [9]) was “significant prolongation of animal survival”. For the same compound, the “in vivo tumor growth” value (E0771 cell transplants; [9]) was “cooperative reduction of in vivo tumor growth”, the animal survival (E0771 cell transplants; [11]) was “prolonging animal survival” and the “in vivo tumor growth” value (E0771 cell transplants; [11]) was “cooperated with chemotherapy in slowing down in vivo tumor growth”. For the same compound, the animal survival (E0771 cell transplants; [10]) was “prolonged animal survival”, the primary tumor growth (E0771 cell transplants; [10]) was “slowed down primary tumor growth” and the primary tumor (E0771 cell transplants; quadruple treatment: Leucine + cyclic fasting + paclitaxel + anti-PD-L1 MoAb) was “complete regression of the primary tumor in some mice”. The animal survival [3, 12] was “prolonged animal survival”, the tumor growth [3, 12] was “significantly slowed down tumor growth” and the animal survival [3, 6] was “meaningful prolongation of animal survival”. For the same compound, the animal survival [3, 8] was “prolonging animal survival”, the “in vivo tumor growth” value [3, 8] was “cooperated with chemotherapy in slowing down in vivo tumor growth” and the animal survival [3, 9] was “significant prolongation of animal survival”. For the same compound, the “in vivo tumor growth” value [3, 9] was “cooperative reduction of in vivo tumor growth”, the animal survival [3, 10] was “prolonged animal survival” and the primary tumor growth [3, 10] was “slowed down primary tumor growth”. For the same compound, the animal survival ([1]; Leucine 500 mg/kg daily + cyclic fasting + oxaliplatin 5 mg/kg weekly + anti-PD-L1 MoAb, compared to the fasting-Leucine doublet) was “meaningful prolongation of animal survival”, the animal survival [1, 7] was “prolonged animal survival” and the “in vivo tumor growth” value [1, 7] was “cooperatively slowed down in vivo tumor growth”. For the same compound, the animal survival [1, 9] was “significant prolongation of animal survival”, the “in vivo tumor growth” value [1, 9] was “cooperative reduction of in vivo tumor growth” and the animal survival [1, 13] was “prolonging animal survival”. The “in vivo tumor growth” value [1, 13] was “cooperated with chemotherapy in slowing down in vivo tumor growth”, the animal survival [1, 10] was “prolonged animal survival” and the primary tumor growth [1, 10] was “slowed down primary tumor growth”. The primary tumor ([1]; quadruple treatment: Leucine + cyclic fasting + oxaliplatin + anti-PD-L1 MoAb) was “complete regression of the primary tumor in some mice”.
For `N.N.O=C([O-])C1(C(=O)[O-])CCC1.[Pt+2]` [carboplatin, reference compound], the animal survival (4T1-luc cell transplants; [14]) was “statistically significant prolongation of animal survival”, the “in vivo tumor growth” value (4T1-luc cell transplants; [14]) was “slowed down in vivo tumor growth” and the animal survival [3, 14] was “statistically significant prolongation of animal survival”. The “in vivo tumor growth” value [3, 14] was “slowed down in vivo tumor growth”.
